In patent US20030134893A1, “Combination chemotherapy” (priority 1999, published 2003):
“And” between values parts separate entries of the source, which are not always exact repeats. Equal values may be shown once. Read-outs that look alike come from different tables or passages of the source. Marks after values point to notes of the source that are not given here.

Tests used:
in vivo [1] = details: female, mouse, in vivo
Experimental: (§1) Each agent was also evaluated alone, and treatment groups were compared to untreated controls.

[2] = tested on: LC-12 squamous cell lung carcinoma tumor; assay: in vivo
Experimental: as §1

in vivo [3] = details: female, mouse, iv
Experimental: The test mice were obtained from Charles River Laboratories, Wilmington, Mass. On Day 0 of the test, each mouse was surgically implanted (subcutaneously) with a fragment of LC-12 squamous cell lung carcinoma tumor weighing approximately 30 to 60 mg. The tumor fragments were implanted using a 12 gauge trocar. The mice were weighed weekly, and tumor size (width and length in mm) were measured two times each week with standard calipers. Tumor mass for each animal was calculated according to the formula: [formula]
where “a” is width of the tumor in mm, and “b” is the length in mm. […] Antitumor activity was assessed according to four parameters: (1) partial tumor response (PR); (2) complete tumor response (CR); (3) tumor-free survival (TF); and (4) tumor growth delay (TL). Tumor growth delay is expressed as a T−C value, where T is the median days required for the treatment group tumors to reach a predetermined size (e.g., 750 mg), and C is the median days for the control group tumors to reach this size. From the tumor growth delay value, the net log10 tumor cell kill is calculated as follows:
where Td is the days for the tumor mass to double, and Rx is the total days of treatment. […] The conversion of the T−C values to log10 cell kill is possible because the Td for tumors regrowing after treatment is approximately the same as that for untreated control mice. […]

solid tumor = assay: Phase 1 dose-escalation clinical study of CI-994 (solid tumor); format: in vivo, human
Experimental: In one such study, patients were treated using a dose-escalation scheme that increased both the daily dose and the duration of treatment. The majority of patients had received extensive prior chemotherapy. The maximum-tolerated dose (MTD) was 15 mg/m^2/day when the duration of treatment was 14 consecutive days. To allow more prolonged treatment, lower doses were studied. Using a schedule of 8 weeks of continuous daily therapy, followed by a 2-week ‘drug holiday’, the MTD was 8 mg/m^2/day. […] Blood counts tended to stabilize even with continued treatment and to recover quickly when treatment was stopped.

[4] = Pharmacokinetics of oral CI-994 in the solid tumor Phase 1 study, incl. food effect; format: in vivo, human; details: fasted patients
[5] = tested on: nonsmall cell lung cancer, renal cell cancer and other cancers; assay: Phase 2 program with CI-994 as a single agent
[6] = Route of elimination of radiolabeled drug, rats; format: in vivo; details: within 24 hours
Experimental: (§2) Mass balance/route of elimination studies have not been conducted in humans. Animal studies indicate that the principal route of elimination is via renal excretion, with 80% and 62% of radiolabeled drug appearing in the urine of monkeys and rats, respectively, within 24 hours.

in vivo [7] = details: female, BALB/C, mouse, po
[8] = Route of elimination of radiolabeled drug, monkeys; format: in vivo; details: within 24 hours
Experimental: as §2

[9] = tested on: LC-12 Mouse Lung Carcinoma
[10] = tested on: relapsed acute leukemia or other hematologic malignancy; assay: Phase 1 study of CI-994, once daily high-dose 5-day schedule; format: in vivo
Experimental: An additional Phase 1 study was conducted in patients with relapsed acute leukemia or other hematologic malignancy using a once daily high-dose 5-day dosing schedule. The MTD was 135 mg/m^2/day. […] Hematologic toxicities cannot be assessed in this patient population.

[11] = Paclitaxel 15 mg/kg/day Days 11-15
[12] = CI-994 15 mg/kg/day Days 11-15,18-22,25-29
[13] = CI-994 7.5 mg/kg/day oral Days 8-12,15-19, 22-26
[14] = CI-994 15.0 mg/kg/day oral Days 8-12,15-19, 22-26
[15] = CI-994 30.0 mg/kg/day oral Days 8-12,15-19, 22-26
[16] = CI-994 60.0 mg/kg/day oral Days 8-12,15-19, 22-26
[17] = CI-994 60.0 mg/kg/day oral Days 8-12,15-19, 22-26, 60 mg/kg/day
[18] = Carboplatin 30 mg/kg/day Days 11-15
[19] = Carboplatin 15 mg/kg/day ip Days 8-12
[20] = Carboplatin 20 mg/kg/day ip Days 8-12

CC(=O)O[C@H]1C(=O)[C@@]2(C)[C@H]([C@H](OC(=O)c3ccccc3)[C@]3(O)C[C@H](OC(=O)[C@H](O)[C@@H](NC(=O)c4ccccc4)c4ccccc4)C(C)=C1C3(C)C)[C@]1(OC(C)=O)CO[C@@H]1C[C@@H]2O [Taxol, paclitaxel, reference compound]
MTD (in vivo [1]; 15 mg/kg): 15 mg/kg
Net log10 Kill [2, 11]: 0.0 log10
No. Tumor Free (40 days after the last treatment) [2, 11]: 0
Nonspecific Deaths [2, 11]: 0/10
T-C (days to reach 750 mg) [2, 11]: 3.7 days
MTD (in vivo [3]): 20 mg/kg/day

CC(=O)Nc1ccc(C(=O)Nc2ccccc2N)cc1 [CI-994, 4-acetylamino-N-(2′-aminophenyl)-benzamide]
MTD (solid tumor; 8 weeks of continuous daily therapy, followed by a 2-week drug holiday, patients): 8 mg/m^2/day
maximum-tolerated dose (MTD) (solid tumor; duration of treatment 14 consecutive days, patients): 15 mg/m^2/day
cumulative toxicity (solid tumor; human, in vivo): no evidence of cumulative toxicity
dose-limiting toxicity (solid tumor; human, in vivo): thrombocytopenia or neutropenia
other toxicities (solid tumor; human, in vivo): nausea, vomiting, diarrhea, anorexia, fatigue, mucositis, headache, dehydration, and increases in liver and renal function test values
time of occurrence of the dose-limiting toxicity after the start of therapy (solid tumor; human, in vivo): ≤ 1 month
responses (solid tumor; patients, majority with extensive prior chemotherapy): one partial response in a heavily pretreated patient with NSCLC and a minor response in one patient each with renal cell cancer and NSCLC
dose dependence of terminal elimination half-life and apparent clearance rate [4]: independent of the dose administered
maximum plasma concentrations with increasing dose levels [4]: less than dose-proportional
time to maximum blood level after ingestion ([4]; preliminary results): 1 to 2 h
half-life ([4]; human, plasma, preliminary results, read-out: terminal elimination half-life (converted)): ~15 h
MTD (in vivo [1]; BALB/C): 60 mg/kg/day
CR (complete response) [2, 12]: 0
Net log10 Kill [2, 12]: −1.3 log10
No. Tumor Free (40 days after the last treatment) [2, 12]: 0
Nonspecific Deaths [2, 12]: 0/10
PR (partial response) [2, 12]: 0
T-C (days to reach 750 mg) [2, 12]: 4.6 days
complete response rate ([2]; CI-994 60 mg/kg/day (MTD)): 30%
T-C (days to reach 750 mg) ([2]; CI-994 60 mg/kg/day Days 11-15,18-22,25-29): 16.2 days
% Weight Change ([2]; mouse, in vivo, 15 mg/kg/day): +4.0%
% Weight Change ([2]; mouse, in vivo, 30 mg/kg/day): 13.4%
% Weight Change ([2]; mouse, in vivo, 60 mg/kg/day): 16.2%
clinical benefit ([5]; 8 mg/m^2 given orally daily): Clinical benefit has been reported in patients with renal cell cancer
dose-limiting toxicity ([5]; 8 mg/m^2 given orally daily): Thrombocytopenia
infrequent neurologic adverse events ([5]; 8 mg/m^2 given orally daily): paresthesias, confusion, and hallucinations
objective responses ([5]; 8 mg/m^2 given orally daily): Objective responses have been seen in patients with nonsmall cell lung cancer
dose increases tolerated by some patients ([5]; oral daily, starting from 8 mg/m^2): 10 mg/m^2
radiolabeled drug appearing in the urine [6]: 62%
MTD at 15 days (in vivo [7]): 60 mg/kg
radiolabeled drug appearing in the urine [8]: 80%
CR (complete response) [9, 13]: 2/10
Net Log10 Kill [9, 13]: −1.2 log10
No. Tumor Free (Day 71) [9, 13]: 2/10
No. of Deaths [9, 13]: 0/10
PR (partial response) [9, 13]: 0/10
T-C (days to reach 750 mg) [9, 13]: 1.0 days
CR (complete response) [9, 14]: 1/10
Net Log10 Kill [9, 14]: −1.3 log10
No. Tumor Free (Day 71) [9, 14]: 1/10
No. of Deaths [9, 14]: 0/10
PR (partial response) [9, 14]: 0/10
T-C (days to reach 750 mg) [9, 14]: 0.9 days
complete responses ([9]; CI-994 30 mg/kg): 20%
partial responses ([9]; CI-994 30 mg/kg): 10%
CR (complete response) [9, 15]: 2/10
Net Log10 Kill [9, 15]: −0.7 log10
No. Tumor Free (Day 71) [9, 15]: 2/10
No. of Deaths [9, 15]: 0/10
PR (partial response) [9, 15]: 1/10
T-C (days to reach 750 mg) [9, 15]: 8.2 days
complete responses ([9]; CI-994 60 mg/kg (MTD)): 50%
CR (complete response) [9, 16]: 5/10
No. of Deaths [9, 16]: 0/10
T-C (days to reach 750 mg) [9, 16]: 19.4 days
No. Tumor Free (Day 71) [9, 17]: 5/10
PR (partial response) [9, 17]: no partial responses and 0/10
antitumor activity ([9]; lower CI-994 doses (below 30 mg/kg)): Little antitumor activity
% Weight Change ([9]; mouse, in vivo, po, 7.5 mg/kg/day): +4.4%
% Weight Change ([9]; mouse, in vivo, po, 15 mg/kg/day): +4.9%
% Weight Change ([9]; mouse, in vivo, po, 30 mg/kg/day): +2.0%
% Weight Change ([9]; mouse, in vivo, po, 60 mg/kg/day): −1.5%
dose-limiting toxicity ([10]; in vivo): acute CNS toxicity manifested as sedation and somnolence
other adverse events ([10]; in vivo): nausea, vomiting, hypotension resulting from dehydration, hypocalcemia, headache, and in one patient each, acute pancreatitis, a pyramidal syndrome characterized by hyperreflexia and bilateral Babinski reflexes, and sepsis
MTD ([10]; once daily high-dose 5-day dosing schedule, patients): 135 mg/m^2/day
tumor lysis syndrome ([10]; patients with AML): Two patients with AML developed tumor lysis syndrome, resulting in one death

N.N.O=C([O-])C1(C(=O)[O-])CCC1.[Pt+2] [Carboplatin, carboplatin, reference compound]
% Weight Change [2, 18]: −3.9%
Net log10 Kill [2, 18]: 0.3 log10
No. Tumor Free (40 days after the last treatment) [2, 18]: 0
Nonspecific Deaths [2, 18]: 0/10
T-C (days to reach 750 mg) [2, 18]: 6.9 days
MTD of carboplatin ([2]; given alone): 30 mg/kg
% Weight Change [9, 19]: −2.0%
CR (complete response) [9, 19]: 1/10
Net Log10 Kill [9, 19]: +0.3 log10
No. Tumor Free (Day 71) [9, 19]: 0/9
No. of Deaths [9, 19]: 1/10^h
PR (partial response) [9, 19]: no partial responses and 0/10
T-C (days to reach 750 mg) [9, 19]: 8.3 days
% Weight Change [9, 20]: −5.5%
CR (complete response) [9, 20]: 2/10
Net Log10 Kill [9, 20]: +0.1 log10
No. Tumor Free (Day 71) [9, 20]: 2/10
No. of Deaths [9, 20]: 0/10
PR (partial response) [9, 20]: 1/10
T-C (days to reach 750 mg) [9, 20]: 5.9 days
complete responses ([9]; carboplatin 20 mg/kg (MTD)): 20%
partial responses ([9]; carboplatin 20 mg/kg (MTD)): 10%
complete responses ([9]; carboplatin at 75% of its MTD (15 mg/kg)): Ten percent
MTD of carboplatin ([9]; ip, once a day, for 5 days): 20 mg/kg
